From PubChem BioAssay (NCI) come the findings set out here.

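All cell lines were grown in 96-well plates and treated with compound for 48 hours. Here, GI50 denotes the concentration required for 50% inhibition of growth. TGI is the concentration that stops growth completely.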

Among the test systems are RXF 393 renal; HCT-116 colon; M14 melanoma; SW-620 colon; HOP-62 NSCLC; ACHN renal; 786-0 renal; IGROV1 ovarian; HT29 colon; SF-539 CNS.
Test in all cases: growth of human tumour cells (NCI), 48 h

For the compound `N#CC1C(N)=NNC12Nc1ccccc1N2` (stereo not given), the GI50 was 0.335 µM in the assay on RXF 393 renal; 34.1 µM with HCT-116 colon; 65.9 µM in the assay with M14 melanoma; 26.8 µM with SW-620 colon; 64.3 µM in the assay on HOP-62 NSCLC; 34.9 µM in the assay with ACHN renal. Moreover, the GI50 in the assay with 786-0 renal was 45 µM; in the assay on IGROV1 ovarian, 11.9 µM. For the same compound, the TGI in the assay with RXF 393 renal is 7.27 µM; with HCT-116 colon, above 100 µM; in the assay with M14 melanoma it was above 100 µM; in the assay on SW-620 colon it was above 100 µM; with HOP-62 NSCLC it was above 100 µM; in the assay with ACHN renal it was above 100 µM. For the same compound, the figures for the TGI in the assay on 786-0 renal and in the assay on IGROV1 ovarian were above 100 µM and 71.3 µM, respectively.
Regarding `COc1cnc2c(c1)C(=O)c1c-2n(CCCN2CCCC2)c(=O)c2cc(Cl)ccc12`, the GI50 with RXF 393 renal is 0.705 µM; with M14 melanoma, 0.872 µM; with SW-620 colon, 0.0313 µM; in the assay with HT29 colon it was 0.161 µM; in the assay on ACHN renal, 0.0753 µM; in the assay with 786-0 renal it was 1.47 µM. The GI50 in the assay on IGROV1 ovarian was 2.47 µM. Moreover, the TGI in the assay on RXF 393 renal came out at 5.82 µM; in the assay with M14 melanoma it was 11.8 µM; with SW-620 colon it was 8.09 µM; in the assay with HT29 colon it was 7.94 µM; in the assay on ACHN renal, 6.42 µM; in the assay on 786-0 renal it was 9.66 µM. Besides, the TGI in the assay with IGROV1 ovarian turned out to be 12.5 µM.
With `C[C@H](CSC(=O)c1ccccc1)C(=O)N1c2ccccc2C[C@H]1C(=O)O`, the TGI with HCT-116 colon, with SW-620 colon, with HT29 colon, in the assay with SF-539 CNS, in the assay with HOP-62 NSCLC and with ACHN renal was above 100 µM throughout. Besides, the TGI in the assay on 786-0 renal was above 10 µM; with IGROV1 ovarian it was above 100 µM.
Turning to `CN(C)CCNC(=O)c1ccc(Cl)c2c(Nc3ccc(S(N)(=O)=O)cc3)c3ccccc3nc12`, the TGI with HCT-116 colon turned out to be 1.71 µM; with M14 melanoma, 10.7 µM; in the assay with SW-620 colon, 2.52 µM; in the assay on HT29 colon, 6.41 µM; in the assay on SF-539 CNS, 4.79 µM; in the assay on HOP-62 NSCLC, 21.6 µM. In addition, the TGI worked out at 10.9 µM in the assay on ACHN renal, 9.2 µM in the assay on 786-0 renal and 16.5 µM with IGROV1 ovarian.
Consider `CC(=O)C1=C([O-])C(C)OC1=O.CC(=O)C1=C([O-])C(C)OC1=O.[NH-]C1CCCC[C@H]1[NH-].[Pt+4]` (stereo not given), for which the GI50 in the assay with RXF 393 renal is above 100 µM; with HCT-116 colon, 45.6 µM; with M14 melanoma it was 85.3 µM; in the assay with SW-620 colon, 8.69 µM; in the assay on HT29 colon, 63.3 µM; in the assay with HOP-62 NSCLC it was above 100 µM. For the same compound, the GI50 is 73.2 µM with ACHN renal, 9.67 µM with 786-0 renal and above 100 µM with IGROV1 ovarian. The TGI in the assay on RXF 393 renal, in the assay with HCT-116 colon, with M14 melanoma, with SW-620 colon, with HT29 colon and in the assay on HOP-62 NSCLC was above 100 µM throughout. In addition, the TGI in the assay on ACHN renal, in the assay on 786-0 renal and with IGROV1 ovarian was above 100 µM throughout.
Take `CCC1CN2CCc3cc(OC)c(OC)cc3C2CC1CC1c2cc(OC)c(OC)cc2CCN1C(=O)CNC(=O)OC(C)(C)C` (stereo not given): the TGI is 51.2 µM in the assay with RXF 393 renal; 29.1 µM with SW-620 colon; above 100 µM in the assay on HT29 colon; 54.4 µM in the assay with ACHN renal; 21.2 µM in the assay with 786-0 renal; 74.6 µM in the assay with IGROV1 ovarian.
As for `FC(F)(F)c1ccc2nc(Nc3ccc(Cl)c(Cl)c3)c(-c3ccccc3)nc2c1`, the TGI in the assay on RXF 393 renal, in the assay on HCT-116 colon, in the assay on SW-620 colon, with HT29 colon, in the assay with SF-539 CNS and with HOP-62 NSCLC was above 100 µM throughout. The TGI in the assay with ACHN renal and with 786-0 renal was above 100 µM in each case.
Regarding `Nc1nc(Nc2cccc(F)c2)nc2ccccc12`, the GI50 is 16.9 µM in the assay on RXF 393 renal; 18.1 µM in the assay on HCT-116 colon; 17.1 µM in the assay with SW-620 colon; 21.4 µM in the assay with HT29 colon; 16.8 µM with SF-539 CNS; 17.1 µM in the assay with HOP-62 NSCLC. Also, the figures for the GI50 in the assay on ACHN renal, in the assay on 786-0 renal and in the assay with IGROV1 ovarian were 20.4 µM, 17.4 µM and 38.7 µM, respectively. Also, the TGI was found to be 45.3 µM with RXF 393 renal; 46.4 µM in the assay with HCT-116 colon; 36.6 µM in the assay with SW-620 colon; 39.3 µM with HT29 colon; 34.2 µM in the assay with SF-539 CNS; 38.5 µM in the assay with HOP-62 NSCLC. The TGI with ACHN renal is 76.8 µM; in the assay with 786-0 renal, 33.6 µM; with IGROV1 ovarian, above 100 µM.
Regarding `COc1ccc2cc3n(c2c1)CCc1cc(OC)c(OC)cc1-3`, the TGI with RXF 393 renal, in the assay on SW-620 colon, with HT29 colon, in the assay on SF-539 CNS, in the assay with HOP-62 NSCLC and in the assay with ACHN renal was above 100 µM throughout. Further, the TGI in the assay on 786-0 renal and with IGROV1 ovarian was above 100 µM in each case.
Take `CCCCCCCCCCCCC(=O)[O-].CCCCCCCCCCCCC(=O)[O-].CCCCCCCCCCCCC(=O)[O-].CCCCCCCCCCCCC(=O)[O-].[Mo+2].[Mo+2]`: the GI50 in the assay with RXF 393 renal was 12 µM; in the assay with HCT-116 colon, 8.98 µM; with M14 melanoma it was 11.7 µM; with SW-620 colon it was 15.1 µM; with HT29 colon, 12.6 µM; in the assay on SF-539 CNS it was 13.9 µM. Besides, the values for the GI50 in the assay on ACHN renal, with 786-0 renal and in the assay on IGROV1 ovarian were 16 µM, 3.68 µM and 15.5 µM, respectively. Further, the TGI in the assay with RXF 393 renal came out at 26.1 µM; with HCT-116 colon, 27.3 µM; in the assay with M14 melanoma, 27.8 µM; in the assay on SW-620 colon it was 29 µM; in the assay with HT29 colon it was 27.1 µM; with SF-539 CNS, 29.1 µM. Besides, the results for the TGI in the assay with ACHN renal, with 786-0 renal and in the assay with IGROV1 ovarian were 30.4 µM, 16 µM and 40.2 µM, respectively.
For `Cc1cccc(C)c1NC(=O)CCCC(=O)C1CCC/C1=N\NC(=O)C(=O)NN` (stereo not given), the TGI with RXF 393 renal, with HCT-116 colon, in the assay on M14 melanoma, with SW-620 colon, in the assay with HT29 colon and in the assay on SF-539 CNS was above 100 µM in each case. For the same compound, the TGI in the assay with ACHN renal and with 786-0 renal was above 100 µM each time.
Take `COc1ccc2c(C(=O)O)cc3cc(OC)c(OC)cc3c2c1`: the TGI in the assay on RXF 393 renal, in the assay on HCT-116 colon, with M14 melanoma, in the assay with SW-620 colon, in the assay with HT29 colon and in the assay with SF-539 CNS was above 100 µM each time. Besides, the TGI in the assay on ACHN renal, in the assay with 786-0 renal and in the assay on IGROV1 ovarian was above 100 µM each time.
